Source: PubChem BioAssay AID248 (DTP/NCI, 2004)
Values joined by “and” are separate entries in the source; they are usually repeats but may differ in a detail not shown here. Equal entries are not always repeated. Toxic doses and inconclusive results are not listed. Rule as the data show it: active = T/C of 150% or more; inactive = T/C below 125%.

Test system: L1210 leukemia ip in BDF1 mice, survival T/C
Test: NCI In Vivo Anticancer Drug Screen. Data for tumor model L1210 Leukemia (intraperitoneal) in B6D2F1 (BDF1) mice
Conditions: endpoint: mean survival time, higher = longer survival
Outline: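 Transplantable tumor model; survival measured in treated vs vehicle control mice. Value = treated/control.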

[1] = dose: 100.0 mg/kg/injection, schedule: Q01DX009 (ip), vehicle: saline
[2] = dose: 100.0 mg/kg/injection, schedule: Q04DX003 (ip), vehicle: saline
[3] = dose: 200.0 mg/kg/injection, schedule: Q04DX003 (ip), vehicle: saline
[4] = dose: 100.0 mg/kg/injection, schedule: Q04DX002 (ip), vehicle: saline with Tween-80
[5] = dose: 200.0 mg/kg/injection, schedule: Q04DX002 (ip), vehicle: saline with Tween-80
[6] = dose: 100.0 mg/kg/injection, schedule: Q04DX002 (ip), vehicle: Klucel (hydroxypropylcellulose) (HPC)
[7] = dose: 200.0 mg/kg/injection, schedule: Q04DX002 (ip), vehicle: Klucel (hydroxypropylcellulose) (HPC)
[8] = dose: 400.0 mg/kg/injection, schedule: Q04DX002 (ip), vehicle: Klucel (hydroxypropylcellulose) (HPC)
[9] = dose: 100.0 mg/kg/injection, schedule: Q04DX003 (ip), vehicle: saline with Tween-80
[10] = dose: 200.0 mg/kg/injection, schedule: Q04DX003 (ip), vehicle: saline with Tween-80
[11] = dose: 50.0 mg/kg/injection, schedule: Q01DX001 (ip), vehicle: Klucel (hydroxypropylcellulose) (HPC)
[12] = dose: 100.0 mg/kg/injection, schedule: Q01DX001 (ip), vehicle: saline
[13] = dose: 100.0 mg/kg/injection, schedule: Q04DX003 (ip), vehicle: Klucel (hydroxypropylcellulose) (HPC)
[14] = dose: 200.0 mg/kg/injection, schedule: Q04DX003 (ip), vehicle: Klucel (hydroxypropylcellulose) (HPC)
[15] = dose: 400.0 mg/kg/injection, schedule: Q04DX003 (ip), vehicle: Klucel (hydroxypropylcellulose) (HPC)
[16] = dose: 100.0 mg/kg/injection, schedule: Q01DX009 (ip), vehicle: Klucel (hydroxypropylcellulose) (HPC)
[17] = dose: 200.0 mg/kg/injection, schedule: Q01DX009 (ip), vehicle: Klucel (hydroxypropylcellulose) (HPC)
[18] = dose: 400.0 mg/kg/injection, schedule: Q01DX009 (ip), vehicle: Klucel (hydroxypropylcellulose) (HPC)
[19] = dose: 100.0 mg/kg/injection, schedule: Q01DX009 (ip), vehicle: saline with Tween-80
[20] = dose: 200.0 mg/kg/injection, schedule: Q01DX009 (ip), vehicle: saline with Tween-80
[21] = dose: 400.0 mg/kg/injection, schedule: Q01DX009 (ip), vehicle: saline with Tween-80

Measured: T/C

CCOC(=O)c1csc(C)n1
inactive: [1] 103 % of control | [2] 99 % of control | dose: 200.0 mg/kg/injection, schedule: Q01DX009 (ip), vehicle: saline 102 % of control | [3] 96 % of control | dose: 400.0 mg/kg/injection, schedule: Q01DX009 (ip), vehicle: saline 109 % of control | dose: 400.0 mg/kg/injection, schedule: Q04DX003 (ip), vehicle: saline 92 % of control

COc1ccc(NC(=O)Nc2ccc(C3=NCCN3)cc2)cc1NC(=O)Nc1ccc(C2=NCCN2)cc1
inactive: dose: 8.0 mg/kg/injection, schedule: Q01DX Z (ip), vehicle: carboxymethylcellulose (CMC) 107 % of control | dose: 16.0 mg/kg/injection, schedule: Q01DX Z (ip), vehicle: carboxymethylcellulose (CMC) 102 % of control | dose: 31.0 mg/kg/injection, schedule: Q01DX Z (ip), vehicle: carboxymethylcellulose (CMC) 100 % of control | dose: 62.0 mg/kg/injection, schedule: Q01DX Z (ip), vehicle: carboxymethylcellulose (CMC) 104 % of control | dose: 125.0 mg/kg/injection, schedule: Q01DX Z (ip), vehicle: carboxymethylcellulose (CMC) 102 % of control

COc1cc(CCC(=O)O)cc(OC)c1OC
inactive: [4] 116 % of control | [5] 89 % of control | dose: 400.0 mg/kg/injection, schedule: Q04DX002 (ip), vehicle: saline with Tween-80 106 % of control

CCN(CC)CCOC(=O)/C=C/c1ccc([N+](=O)[O-])o1
inactive: dose: 50.0 mg/kg/injection, schedule: Q01DX Z (ip), vehicle: saline 103 % of control | dose: 75.0 mg/kg/injection, schedule: Q01DX Z (ip), vehicle: saline 109 % of control | dose: 113.0 mg/kg/injection, schedule: Q01DX Z (ip), vehicle: saline 112 % of control

c1ccc2cc3c(cc2c1)OCO3
inactive: [6] 110 % of control | [7] 107 % of control | [8] 98 % of control

COC(=O)c1ccccn1
inactive: [4] 100 % of control | [5] 107 % of control

C=C1C(O)CC2CC1C2(C)C (stereo unspecified)
inactive: [9] 92 % of control | [10] 92 % of control

Nc1ncnc2nc(-c3cccc([N+](=O)[O-])c3)[nH]c12
inactive: [11] 100 % of control | dose: 100.0 mg/kg/injection, schedule: Q01DX001 (ip), vehicle: Klucel (hydroxypropylcellulose) (HPC) 91 % of control | dose: 200.0 mg/kg/injection, schedule: Q01DX001 (ip), vehicle: Klucel (hydroxypropylcellulose) (HPC) 88 % of control

NC(N)=NNC(=S)S
inactive: dose: 25.0 mg/kg/injection, schedule: Q01DX009 (ip), vehicle: saline with Tween-80 102 % of control | dose: 50.0 mg/kg/injection, schedule: Q01DX009 (ip), vehicle: saline with Tween-80 110 % of control | dose: 50.0 mg/kg/injection, schedule: Q04DX003 (ip), vehicle: saline with Tween-80 95 % of control | [9] 92 % of control

COc1ccc(NC(=O)OCCN(CCOC(=O)Nc2ccc(OC)cc2)c2cccc(C)c2)cc1
inactive: [12] 100 % of control | dose: 200.0 mg/kg/injection, schedule: Q01DX001 (ip), vehicle: saline 90 % of control | dose: 400.0 mg/kg/injection, schedule: Q01DX001 (ip), vehicle: saline 90 % of control

COC(=O)c1ccc(C(=O)OC)o1
inactive: [6] 113 % of control | [7] 98 % of control | [8] 106 % of control

CCCCCCCCCCCCCC[Si](Cl)(Cl)Cl
inactive: dose: 75.0 mg/kg/injection, schedule: Q01DX001 (ip), vehicle: saline 94 % of control | dose: 150.0 mg/kg/injection, schedule: Q01DX001 (ip), vehicle: saline 92 % of control

CCCCCCCCCCCCCCCCOC(=O)CC(=O)OCCCCCCCCCCCCCCCC
inactive: dose: 100.0 mg/kg/injection, schedule: Q01DX001 (ip), vehicle: other 86 % of control | dose: 200.0 mg/kg/injection, schedule: Q01DX001 (ip), vehicle: other 100 % of control | dose: 400.0 mg/kg/injection, schedule: Q01DX001 (ip), vehicle: other 108 % of control

NC(N)=N/C(N)=N/Nc1ccc([N+](=O)[O-])cc1[N+](=O)[O-]
inactive: dose: 12.5 mg/kg/injection, schedule: Q04DX002 (ip), vehicle: saline with Tween-80 98 % of control | dose: 25.0 mg/kg/injection, schedule: Q04DX002 (ip), vehicle: saline with Tween-80 93 % of control | [4] 88 % of control

O=P(O)(c1ccccc1)c1ccccc1
inactive: [6] 102 % of control and 86 % of control | [7] 93 % of control and 89 % of control | [8] 96 % of control

CC(=O)/C=C(\C)OB(F)F
inactive: dose: 50.0 mg/kg/injection, schedule: Q01DX001 (ip), vehicle: saline 98 % of control | [12] 95 % of control

CCN(CC)CC(=O)NCC(CCN1CCOCC1)(CC(C)C)c1cccc2ccccc12 (stereo unspecified)
inactive: dose: 50.0 mg/kg/injection, schedule: Q01DX009 (ip), vehicle: saline 111 % of control | [1] 105 % of control | [2] 96 % of control | [3] 97 % of control

COc1cc2c(cc1OC)C(=O)CN(S(=O)(=O)c1ccc(C)cc1)CC2
inactive: dose: 50.0 mg/kg/injection, schedule: Q01DX009 (ip), vehicle: saline sonified 101 % of control | dose: 100.0 mg/kg/injection, schedule: Q01DX009 (ip), vehicle: saline sonified 87 % of control | [13] 96 % of control | dose: 200.0 mg/kg/injection, schedule: Q01DX009 (ip), vehicle: saline sonified 89 % of control | [14] 96 % of control | [15] 97 % of control

O=C(/C=C(\CN1CCCCC1)c1ccccc1)c1ccccc1
inactive: [13] 96 % of control | [15] 96 % of control

CSCC1OC(n2cnc3c(N)ncnc32)C(O)C1O (stereo unspecified)
inactive: dose: 50.0 mg/kg/injection, schedule: Q01DX001 (ip), vehicle: saline with Tween-80 96 % of control | dose: 100.0 mg/kg/injection, schedule: Q01DX001 (ip), vehicle: saline with Tween-80 96 % of control | dose: 200.0 mg/kg/injection, schedule: Q01DX001 (ip), vehicle: saline with Tween-80 96 % of control

O=S(=O)(Cl)c1ccccc1Cl
inactive: [11] 101 % of control

Nc1c(Cl)ncnc1NCCCCCO
inactive: [13] 100 % of control | [14] 94 % of control | [15] 107 % of control

O=C(Nc1cccc(O)c1)c1ccc([N+](=O)[O-])cc1
inactive: [16] 93 % of control | [17] 90 % of control | [18] 90 % of control

O=[N+]([O-])c1ccc(S(=O)CCl)cc1 (stereo unspecified)
inactive: [13] 98 % of control | [14] 105 % of control

Cc1noc(N)c1-n1c(C)ccc1C
inactive: [19] 102 % of control | [9] 100 % of control | [20] 105 % of control | [10] 98 % of control | [21] 100 % of control | dose: 400.0 mg/kg/injection, schedule: Q04DX003 (ip), vehicle: saline with Tween-80 94 % of control

CCCCCOC(=O)C1OC1(C)c1ccccc1 (stereo unspecified)
inactive: [19] 98 % of control | [20] 91 % of control | [21] 88 % of control

CC(=O)c1cccc(NC(=O)Nc2ccc(I)cc2)c1
inactive: [16] 97 % of control | [17] 96 % of control | [18] 97 % of control
